Assay results: PubChem BioAssay AID179 (DTP/NCI, 2004)
The source made the active and inactive calls.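 How the source made its calls: active means compounds giving half or more protection of infected cells from virus-caused growth loss, again on retest; inactive means the rest.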

System: CEM cells HIV-1 protection, formazan growth assay
Test: NCI AIDS Antiviral Assay
Details: for IC50: measured here: growth of uninfected CEM cells
Summary of the method: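 Protection of CEM cells against HIV-1 was scored from cell growth (soluble formazan) across five concentrations, with parallel uninfected cells. Lack of protection may reflect toxicity.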

## COc1ccc(/C=N/NC(=O)c2cnc3[nH]c(=O)n(C)c(=O)c3c2)cc1
  EC50: > 200 µM
  IC50: > 200 µM

## C=CC(=O)N1CN(C(=O)C=C)CN(C(=O)C=C)C1
  EC50: > 200 µM
  IC50: 1.15 µM

## CN1CCCC1CCNc1nc(Nc2ccc(Cl)c(Cl)c2)nc2ccc(Cl)cc12 (stereo unspecified)
  EC50: > 19.1 µM
  IC50: 3.24 µM

## CCCCCCCCCCCCNC1=C(Cl)C(=O)C(=O)c2cccnc21
  EC50: 53.7 µM
  IC50: 174 µM

## O=S1Cc2nc3ccccc3n2C1c1c(F)cccc1F (stereo unspecified)
  EC50: > 117 µM

## FC1(F)ON2CCc3ccccc3C2[C@H]1c1ccccc1 (stereo partly specified)
  EC50: > 200 µM
  IC50: 15.5 µM

## CC1(C)C[C@H]2[C@H](O)C(CO)=C3C(=O)[C@@H](O)[C@]3(C)[C@H]2C1
  outcome: inactive

## COc1ccc2nc3cc(Cl)ccc3c(NCCCN(C)CCCNc3ccc4ncn5c6ccccc6c(=O)c3c45)c2c1
  EC50: > 0.251 µM
  IC50: 0.166 µM

## CC(=O)OCC1OC(n2c(-c3ccc(Cl)cc3)cc(-c3ccccc3)c(C#N)c2=S)C(OC(C)=O)C(OC(C)=O)C1OC(C)=O (stereo unspecified)
  EC50: > 200 µM
  IC50: 145 µM

## COc1nc(N2CCNCC2)nc2c1CCCC2
  outcome: inactive

## COc1ccc(Sc2ccccc2N)cc1
  outcome: inactive

## S=C1NC(/C=C/c2ccccc2)Nc2ccccc21 (stereo unspecified)
  EC50: > 26.9 µM
  IC50: > 26.9 µM

## [C-]#[O+].[C-]#[O+].[C-]#[O+].[Re].c1ccc2c(c1)[cH-]c1ccccc12
  EC50: > 1.66 µM
  IC50: > 1.66 µM

## CCOC(CN(C)C(=S)Nc1cccc2ccccc12)OCC
  EC50: > 200 µM
  IC50: 158 µM

## O=c1n(-c2ccccc2)c(=O)n2n1C1C=CC2CCCCCC1
  EC50: > 200 µM
  IC50: > 200 µM

## Nc1ncnc2oc(C3OC(COC(=O)c4ccccc4)C(OC(=O)c4ccccc4)C3OC(=O)c3ccccc3)nc12 (stereo unspecified)
  EC50: > 200 µM
  IC50: 148 µM

## CO/S(=N/S(=O)(=O)c1ccccc1)c1ccccc1[N+](=O)[O-] (stereo unspecified)
  EC50: > 380 µM
  IC50: 102 µM

## NCCCN(CCCN)CCCNCc1c2ccccc2c(CNCCCN(CCCN)CCCN)c2ccccc12
  EC50: 4.79 µM
  IC50: 16.6 µM

## CC1=C(C(=O)N[C@@H](CC(C)C)C(=O)O)N2C(=O)[C@@H](NC(=O)[C@@H](N)Cc3ccccc3)[C@H]2SC1
  EC50: > 200 µM
  IC50: 85.1 µM

## CC[C@H]1C[C@@H](O)[C@@H]2[C@H](O)[C@H](O)CN2C1
  EC50: > 200 µM
  IC50: > 200 µM

## CC1=CC(C)(C)Nc2ccccc2N1
  EC50: > 200 µM
  IC50: > 200 µM

## C/C(=N\NS(=O)(=O)c1ccc([N+](=O)[O-])cc1)c1ccc[n+]([O-])n1
  outcome: inactive

## NC1=Nc2ccccc2N(O)N1
  EC50: > 158 µM
  IC50: > 158 µM

## COC(C)(C)C1(O)CC[C@@H](C)CC1=O (stereo partly specified)
  EC50: > 100 µM
  IC50: > 100 µM

## CC(C)=NNC1=NC(C)(C)P(=O)(N2CCCC2C(=O)O)S1 (stereo unspecified)
  EC50: > 135 µM
  IC50: 132 µM

## N#CSCC1COc2ccccc2O1 (stereo unspecified)
  EC50: > 200 µM
  IC50: 1.23 µM

## CC([C@H]1CCC2[C@@H]3CCC4C(=O)C(NC(=O)c5ccccc5)=CC[C@]4(C)C3CC[C@@]21C)N(C)C (stereo partly specified)
  EC50: > 4.37 µM
  IC50: 1.32 µM

## CC(NCc1c(O)ccc2ccc(=O)oc12)C(=O)O (stereo unspecified)
  EC50: > 200 µM
  IC50: > 200 µM

## C/C(=N/Nc1ccc([N+](=O)[O-])cc1[N+](=O)[O-])c1ccc(Sc2ccc(/C(C)=N/Nc3ccc([N+](=O)[O-])cc3[N+](=O)[O-])cc2)cc1
  EC50: > 50.1 µM
  IC50: > 50.1 µM

## CC(C(=O)N1C(=O)N(C(=O)C(C)C(O)c2ccccc2)C2CCCCC21)C(O)c1ccccc1 (stereo unspecified)
  EC50: > 200 µM
  IC50: 120 µM

## CCOC(=O)c1c(-c2ccccc2)oc(-c2ccccc2)c1C(=O)OCC
  outcome: inactive

## OC1=C2CCCCCC2=[N+]2CCCCC2C1 (stereo unspecified)
  EC50: > 200 µM
  IC50: > 200 µM

## O=c1[nH]cnc2c1C(c1ccccc1)c1ccccc1-2 (stereo unspecified)
  EC50: > 38 µM
  IC50: > 38 µM

## Cc1ccc(C2(c3ccc(Cl)cc3)c3ccccc3C3=NCCN32)cc1 (stereo unspecified)
  EC50: > 200 µM
  IC50: 11 µM

## O=c1c2ccccc2oc2ccccc12.[Cl][Hg][Cl]
  EC50: > 11.2 µM
  IC50: > 11.2 µM

## CCn1c(SCC(=O)NNC(=S)Nc2ccc(F)cc2)nc2ccccc2c1=O
  EC50: > 200 µM
  IC50: 129 µM

## CCCCCCOC(=O)CC1CC(C(C)=O)C1(C)C (stereo unspecified)
  EC50: > 200 µM
  IC50: > 200 µM

## CC(C)=C1C=C2CC[C@@H]3[C@](C)(CCC[C@@]3(C)C(=O)O)[C@H]2CC1
  EC50: > 200 µM
  IC50: 105 µM

## CCCCC(=O)c1c(O)c2ccccc2oc1=O
  EC50: > 200 µM
  IC50: 29.5 µM

## c1ccc(SC(Sc2ccccc2)=C2CCC2)cc1
  outcome: inactive

## NC(=O)C(N)(c1ccccc1)c1ccccc1
  outcome: inactive

## CCc1c(Cc2ccccc2)n(COCCSc2ccccc2)c(=O)[nH]c1=O
  EC50: 3.24 µM
  IC50: 26.9 µM

## CCCCN=C(OC1C=CCCC1)SC (stereo unspecified)
  EC50: > 200 µM
  IC50: 155 µM

## Cc1cc(NS(=O)(=O)c2ccc(Nc3c4ccccc4nc4ccccc34)cc2)no1
  EC50: > 200 µM
  IC50: 2 µM

## COc1ccc(N2C(=O)C3c4[nH]c5ccc(C)cc5c4C4CCC(c5ccccc5)CC4C3C2=O)cc1 (stereo unspecified)
  outcome: inactive
